{
  "source": "patent US7462605B2",
  "about": "“Phosphoramidate compounds and methods of use” (Celmed Oncology (USA), Inc., priority 2002, dated 2008)",
  "key": {"[1]": {"system": "MDAMB468 (Breast) tumor cells", "assay": "alamarBlue growth inhibition, MDAMB468", "assay_type": "cell-based, human", "conditions": "120 hours", "method": "(§1) Growth Inhibition Studies. Cells growing exponentially were transferred to 384-well flat bottom tissue culture plates. All cell types were plated at a density of 500 cells per well in 25 μL of complete medium (RPMI 1640+10% fetal bovine serum+antibiotics/antimycotics). After 24 hours (day 0), 25 μL of complete medium containing the experimental compounds over the dose range of 10^ñ3 to 10^ñ10 M were added in triplicate. […] 5 μL of the redox indicator, alamarBlue, was added to each well (10% v/v). After 4 hours incubation at 37° C., fluorescence was monitored at 535 nm excitation and 595 nm emission.\n(§2) Concentration vs. relative fluorescence units (RFU) were plotted, and sigmoid curves were fit using the Hill equation."}, "[2]": {"system": "NHOST (Bone) normal cells", "assay": "alamarBlue growth inhibition, NHOST", "assay_type": "cell-based, human", "conditions": "120 hours", "method": "as §1, §2"}, "[3]": {"system": "NCI H520 (Lung) tumor cells", "assay": "alamarBlue growth inhibition, NCI H520", "assay_type": "cell-based, human", "conditions": "120 hours", "method": "as §1, §2"}, "[4]": {"system": "SKCO1 (Colon) tumor cells", "assay": "alamarBlue growth inhibition, SKCO1", "assay_type": "cell-based, human", "conditions": "120 hours", "method": "as §1, §2"}, "SKLU1 (Lung) tumor cells": {"system": "SKLU1 (Lung) tumor cells", "assay": "alamarBlue growth inhibition, SKLU1", "assay_type": "cell-based, human", "conditions": "120 hours", "method": "as §1, §2"}, "TSH/HT1080 cells": {"system": "TSH/HT1080 cells", "assay": "alamarBlue cytotoxicity, HT1080 expressing high GFP-TS", "assay_type": "cell-based, human", "conditions": "second line printed TSL/HT1080, TS Level 702%", "method": "Cell lines and transfection. HT1080 cells were grown in PRM11640 medium supplemented with 10% fetal calf serum, and transfected with GFP-TS expression vector. 48 hours after, transfection cells were tripsinized and replated in culture medium containing 750 μg/ml G418. After selection with G418 for two weeks, surviving cells were sorted based upon fluorescence expression. One clone with higher fluorescence expression (named as TSH/HT1080) and one clone with lower fluorescence expression (named as TSL/HT1080) were selected and expanded into cells lines. The stable HT1080 cells transfected with pEGFP-C3 were used as control.\nConstruction of GFP-TS expression vector. […] The cDNA was cloned into HindIII and KpnI sites of mammalian expression vector pEGFP-C3 (Clontech Laboratories. Inc., Palo Alto, Calif.), in-frame with GFP sequence. The cDNA insert was confirmed by DNA sequencing.\nGrowth Inhibition Studies. Cells growing exponentially were transferred to 384-well flat bottom tissue culture plates. All cell types were plated at a density of 500 cells per well in 25 μL of complete medium (RPMI 1640+10% fetal bovine serum+antibiotics/antimycotics). […] After 4 hours incubation at 37° C., fluorescence was monitored at 535 nm excitation and 595 nm emission.\nas §2"}, "NHA (Brain) normal cells": {"system": "NHA (Brain) normal cells", "assay": "alamarBlue growth inhibition, NHA", "assay_type": "cell-based, human", "conditions": "120 hours", "method": "as §1, §2"}, "NHDF (Skin) normal cells": {"system": "NHDF (Skin) normal cells", "assay": "alamarBlue growth inhibition, NHDF", "assay_type": "cell-based, human", "conditions": "120 hours", "method": "as §1, §2"}, "SOAS2 (Bone) tumor cells": {"system": "SOAS2 (Bone) tumor cells", "assay": "alamarBlue growth inhibition, SOAS2", "assay_type": "cell-based, human", "conditions": "120 hours", "method": "as §1, §2"}, "[5]": {"system": "H630 colon cancer cells, TDX selection", "assay": "alamarBlue cytotoxicity, H630 TDX-selected", "assay_type": "cell-based, human", "conditions": "Drug Selection TDX, read-out: NB1011-IC50", "method": "as §1, §2\nCells were grown and characterized as described above. TS expression level is relative to CCD18co, a normal colon epithelial cell line. Tritium release is background substracted as described in Methods. ND=Not detectable above background."}, "[6]": {"system": "CCD18co normal colon epithelial cells", "assay": "Thymidine rescue, alamarBlue cytotoxicity", "assay_type": "cell-based, human", "conditions": "in the presence of 10 μM thymidine", "text": "An additional approach was taken to understanding whether NB1011 might interfere with cell growth primarily by inactivating TS. This approach is based upon thymidine rescue of TS-blocked cells. […] For this reason, they survive only by scavenger mechanisms. One of the important scavenger mechanisms is utilization of extracellular thymidine. Thymidine incorporated by target cells can be converted to dTMP, usually by thymidine kinase, and thus continue DNA synthesis. Other pathways for use of exogenous thymidine have also been described If an important mechanism for NB1011 activity is via inhibition of endogenous TS, then the cytotoxicity should be relieved when thymidine is added to the cell culture media. For this experiment, a number of tumor cell lines were screened for their sensitivity to Tomudex and 5FdUrd, and ability to be rescued from these agents via thymidine supplementation. […] Experiments were carried out as described by (Patterson, et al. (1998)) with or without 10 μM thymidine, except that the alamarBlue assay was employed to determine cytotoxicity."}, "[7]": {"system": "SW620 (Colon) tumor cells", "assay": "alamarBlue growth inhibition, SW620", "assay_type": "cell-based, human", "conditions": "120 hours", "method": "as §1, §2"}, "[8]": {"system": "normal and tumor cell types", "assay": "cells", "conditions": "for IC50: read-out: IC50 (μM), Average", "method": "Growth Inhibition Studies. Cells growing exponentially were transferred to 384-well flat bottom tissue culture plates. All cell types were plated at a density of 500 cells per well in 25 μL of complete medium (RPMI 1640+10% fetal bovine serum+antibiotics/antimycotics). After 24 hours (day 0), 25 μL of complete medium containing the experimental compounds over the dose range of 10^ñ3 to 10^ñ10 M were added in triplicate. Drug exposure time was 120 hours (day 5), after which growth inhibition was assayed. 5 μL of the redox indicator, alamarBlue, was added to each well (10% v/v). After 4 hours incubation at 37° C., fluorescence was monitored at 535 nm excitation and 595 nm emission.\nas §2\nAssays were carried out as described in Methods, above. Therapeutic index is calculated as the ratio of the average IC50 for normal cells to the average IC50 for tumor cells. All assays were done at least three times."}, "[9]": {"system": "MDAMB361 (Breast) tumor cells", "assay": "alamarBlue growth inhibition, MDAMB361", "assay_type": "cell-based, human", "conditions": "120 hours", "method": "as §1, §2"}, "[10]": {"system": "MCF7 TDX (Tomudex-resistant MCF7 breast cancer cells)", "assay": "alamarBlue cytotoxicity, MCF7 TDX", "assay_type": "cell-based, human", "method": "as §1, §2\nReversal of Resistance. The origin and characteristics of the human breast cancer MCF7 TDX cell line have been previously described (Drake, et al. (1996)). Briefly, MCF-7 breast cancer cells were selected in vitro for resistance to Tomudex by continuous exposure to stepwise increases in TDX concentrations up to 2.0 μM. […] After a dramatic initial cell killing effect, resistant colonies emerged, and vigorously growing monolayers were formed. TS protein level and IC50 for 5-FU, TDX, and NB1011 were determined for the resultant MCF7 TDX/1011 cell line as described in above by western blot and the alamarBlue cytotoxicity assay, respectively."}},
  "note": "Where two headings read alike, the source gives them in different places.",
  "data": [
    {"substance": "5-(2-Bromovinyl)-2′-deoxyuridine phenyl N-methoxy-L-alaninyl phosphoramidate [NB1011]", "values": [
      {"measurement": "IC50", "setting": "[1]", "value": 172, "unit": "µM"},
      {"measurement": "IC50", "setting": "[2]", "value": 642, "unit": "µM"},
      {"measurement": "IC50", "setting": "[3]", "value": 135, "unit": "µM"},
      {"measurement": "IC50", "setting": "[4]", "value": 184, "unit": "µM"},
      {"measurement": "IC50", "setting": "SKLU1 (Lung) tumor cells", "value": 270, "unit": "µM"},
      {"measurement": "IC50", "setting": "TSH/HT1080 cells", "value": 0.8, "unit": "µM"},
      {"measurement": "IC50", "setting": "NHA (Brain) normal cells", "value": 839, "unit": "µM"},
      {"measurement": "IC50", "setting": "NHDF (Skin) normal cells", "value": 359, "unit": "µM"},
      {"measurement": "IC50", "setting": "SOAS2 (Bone) tumor cells", "value": 232, "unit": "µM"},
      {"measurement": "IC50", "setting": "[5]", "value": 2.3, "unit": "µM"},
      {"measurement": "IC50", "setting": "[6]", "value": 223, "unit": "µM"},
      {"measurement": "IC50", "setting": "[7]", "value": 374, "unit": "µM"},
      {"measurement": "improvement in therapeutic index as compared with 5-FU", "setting": "[8]; (2)×(3)", "value": 6, "unit": "fold"},
      {"measurement": "more cytotoxic to tumor cells vs. normal cells", "setting": "[8]; overall, panel", "value": "about 2 fold"},
      {"measurement": "IC50", "setting": "[8]; average of the 11 normal cell types", "value": 561, "unit": "µM"},
      {"measurement": "IC50", "setting": "[8]; average of the 21 tumor cell lines", "value": 288, "unit": "µM"},
      {"measurement": "IC50", "setting": "[9]", "value": 365, "unit": "µM"},
      {"measurement": "IC50", "setting": "[10]; MCF7 Breast cancer, Drug Selection TDX, read-out: NB1011-IC50", "value": 2.8, "unit": "µM"},
      {"measurement": "IC50", "setting": "[10]; MCF7 TDX, alamarBlue, read-out: IC50", "value": 2, "unit": "µM"}
    ]}
  ]
}
